From article PMC7730961, “Discovery of Novel Dual Extracellular Regulated Protein Kinases (ERK) and Phosphoinositide 3-Kinase (PI3K) Inhibitors as a Promising Strategy for Cancer Therapy” (Molecules, 2020)
Structures can show the parent of a compound that is named as a salt. Where two headings read alike, the source gives them in different places. Each block holds one compound with its values, some of them ahead of it.

Legend:
[1] = target: ERK 2 (Homo sapiens, UniProt P28482); experiment: Enzymatic inhibition assay (ADP-Glo Plus luminescence kinase assay), ERK2; type: biochemical; conditions: for inhibition at 1 µM: 1 μM (1000 nM) compound
Description: (§1) All compounds were diluted in 10% DMSO and tested in 10-dose with 3-fold serial dilution starting at a concentration of 1 μM. Of the dilution, 5 µL was added to a 50 µL reaction so that the final concentration of DMSO is 1% in all of reactions. After all of the reaction mixtures were conducted at 30 °C for 40 min, the assay was performed using ADP-Glo Plus luminescence kinase assay kit. The luminescence signal and the intensity of the luminescence signal value were detected using a multi-well spectrophotometer (the MD-SpectraMax M5 multifunctional microplate reader). It was directly proportional to the inhibition of enzyme activity.

[2] = target: PI3Kα (Homo sapiens, UniProt P42336); experiment: Enzymatic inhibition assay (ADP-Glo Plus luminescence kinase assay), PI3Kα; type: biochemical; conditions: for inhibition at 1 µM: 1 μM (1000 nM) compound
Description: as §1, with “The 50 µL reaction mixture contains 40 mM Tris-HCl, pH 7.4, 10 µM ATP, 10 mM MgCl2, 0.1 mg/mL BSA, 1 mM DTT, 0.2 ug/mL ERK 2, ERK 1, PI3Kα, PI3Kβ, PI3Kγ or PI3Kδ and 100 uM lipid substrate. All” for “All”, “activity. The experimental results were converted into active percentages, a dose-response curve is drawn, and the IC50 value of inhibition was calculated using […] PRISM 5 nonlinear regression.” for “activity.”

[3] = system: HEC1B; experiment: Anti-proliferation assay (MTT, 72 h), HEC1B; type: cell-based; conditions: Homo sapiens, HEC-1B, HEC1B cells
Description: (§2) Human cancer cell lines HCT116 and HEC1B were cultured in media with 10% FBS (GIBCO, Invitrogen Corporation, NY, USA) at 37 °C in a 5% (v/v) CO2 humidified incubator. The logarithmic growth phase cells were seeded in a 96-well plate with a density of 1 × 10^5 cells/mL, cultured at 37 °C, 5% CO2. Until the cells were 90% confluent, the medium containing compound was added to incubate for 72 h, and then the cell viability was tested by MTT analysis. Taking the drug concentration as the abscissa and the percentage of proliferation inhibitory activity corresponding to each concentration as the ordinate, using Graphpad Prism 5 to do nonlinear regression, the IC50 value of each compound was calculated.

[4] = In vivo pharmacokinetic study in SD rats; parameters: species or system Sprague Dawley rats; conditions: for MRT last: read-out: MRT0–t
Description: The pharmacokinetic experiment was conducted by using 180–220 g male Sprague Dawley rats (purchased from Weitong Lihua Experimental Animal Co., Ltd., Beijing, China). The experimental animals were raised in a well-ventilated, air-conditioned standard animal room where the temperature was maintained at 20–25 °C, the humidity was maintained at 40–70%, and the light and dark were rotated for 12 h each. After about 5 days of normal feeding, rats with good physical signs can enter this experiment after veterinary inspection. All rats were fasted for 12 h before the start of the animal experiment. The 32d was dissolved in a mixture of 40% DMSO + 40% PEG400 + 20% 5% glucose injection at a concentration of 1 mg/mL (1 mg/kg). The 32d was administered to the […] by p.o. (0.2 mg/mL, 10 mg/kg), and blood samples (about 0.25 mL) were collected from the posterior orbital venous plexus after different time points (i.v.: 2 min, 15 min, 30 min, 1 h, 2 h, 4 h, 6 h, 8 h, and 12 h; po: 5 min, 15 min, 30 min, 1 h, 2 h, 4 h, 6 h, 8 h, 12 h, and 24 h) after dosing, with three […] for each time point. The whole plasma samples were kept frozen at −20 °C until LC/MS/MS analysis after centrifugation. WinNolin 8.2 software was used to calculate pharmacokinetic parameters, and GraphPad Prism 8.0 was used to draw plasma concentration-time curves.

[5] = In vitro pharmacokinetic study, oxidation metabolism in human liver microsomes; type: in vitro ADME; conditions: n = 3
Description: The pharmacokinetic experiment was conducted by using human liver microsome (purchased from Research Institute for Liver Diseases (Shanghai) Co., Ltd., Shanghai, China). The reaction mixture contained 100 μL PBS, 40 μL liver microsome and 20 μL dilution of compound 32d. After the reaction mixtures were preconducted at 37 °C for 5 min, 40 μL NADPH solution was added to start pharmacokinetic reaction, and samples were collected at different time points (5 min, 10 min, 15 min, 30 min and 45 min). Then, 100 μL of ethyl acetate was added to stop the reaction. The whole samples were added in 10 μL of an internal standard (Phenacetin) to shake for 10 min and centrifuge at 10,000 rpm for 10 min and then taken out 300 μL of supernatant.for LC/MS/MS analysis. WinNolin 8.2 software was used to calculate pharmacokinetic parameters, and GraphPad Prism 8.0 was used to draw concentration-time curves.

[6] = system: HCT116; experiment: Anti-proliferation assay (MTT, 72 h), HCT116; type: cell-based; conditions: Homo sapiens, HCT-116, HCT116 cells
Description: as §2

[7] = system: HCT-116 xenograft; experiment: In vivo antitumor activity, HCT-116 xenograft in nude mice; parameters: species or system Balb/c-nude mice; conditions: intraperitoneal once daily, 21 days, 32d 5 mg/kg, BVD-523 5 mg/kg, GDC-0980 1 mg/kg; for TGI (tumor growth inhibitory rate): nude mice, combination 2.5 mg/kg + 0.5 mg/kg
Description: Male five-week-old Balb/c-nude mice (18–20 g) were injected subcutaneously with HCT-116 cells (5 × 10^7/mL cells suspended in Matrigel Matrix). […] All mice were administered by intraperitoneal q.d. The tumor volumes were measured using electronic digital calipers every 3 days and were calculated as 1/2 length × width × width.

[8] = Solubility; type: physicochemical; conditions: relative to parent after introducing a hydrophilic group at the pyrazole NH
[9] = male, Sprague-Dawley, rat, plasma, iv, i.v. 1 mg/kg
[10] = male, Sprague-Dawley, rat, plasma, po, p.o. 10 mg/kg

Sequence of ERK 2 (P28482 whole entry): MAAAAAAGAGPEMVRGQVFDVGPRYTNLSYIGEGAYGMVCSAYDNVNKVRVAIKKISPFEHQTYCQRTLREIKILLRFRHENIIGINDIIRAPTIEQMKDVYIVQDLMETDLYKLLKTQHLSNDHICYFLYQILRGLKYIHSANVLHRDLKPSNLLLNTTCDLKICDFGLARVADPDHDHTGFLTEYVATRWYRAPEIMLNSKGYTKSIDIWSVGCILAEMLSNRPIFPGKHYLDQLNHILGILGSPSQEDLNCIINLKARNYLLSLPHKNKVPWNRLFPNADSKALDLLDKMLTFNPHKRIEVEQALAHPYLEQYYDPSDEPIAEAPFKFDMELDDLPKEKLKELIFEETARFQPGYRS
Sequence of PI3Kα (P42336 whole entry): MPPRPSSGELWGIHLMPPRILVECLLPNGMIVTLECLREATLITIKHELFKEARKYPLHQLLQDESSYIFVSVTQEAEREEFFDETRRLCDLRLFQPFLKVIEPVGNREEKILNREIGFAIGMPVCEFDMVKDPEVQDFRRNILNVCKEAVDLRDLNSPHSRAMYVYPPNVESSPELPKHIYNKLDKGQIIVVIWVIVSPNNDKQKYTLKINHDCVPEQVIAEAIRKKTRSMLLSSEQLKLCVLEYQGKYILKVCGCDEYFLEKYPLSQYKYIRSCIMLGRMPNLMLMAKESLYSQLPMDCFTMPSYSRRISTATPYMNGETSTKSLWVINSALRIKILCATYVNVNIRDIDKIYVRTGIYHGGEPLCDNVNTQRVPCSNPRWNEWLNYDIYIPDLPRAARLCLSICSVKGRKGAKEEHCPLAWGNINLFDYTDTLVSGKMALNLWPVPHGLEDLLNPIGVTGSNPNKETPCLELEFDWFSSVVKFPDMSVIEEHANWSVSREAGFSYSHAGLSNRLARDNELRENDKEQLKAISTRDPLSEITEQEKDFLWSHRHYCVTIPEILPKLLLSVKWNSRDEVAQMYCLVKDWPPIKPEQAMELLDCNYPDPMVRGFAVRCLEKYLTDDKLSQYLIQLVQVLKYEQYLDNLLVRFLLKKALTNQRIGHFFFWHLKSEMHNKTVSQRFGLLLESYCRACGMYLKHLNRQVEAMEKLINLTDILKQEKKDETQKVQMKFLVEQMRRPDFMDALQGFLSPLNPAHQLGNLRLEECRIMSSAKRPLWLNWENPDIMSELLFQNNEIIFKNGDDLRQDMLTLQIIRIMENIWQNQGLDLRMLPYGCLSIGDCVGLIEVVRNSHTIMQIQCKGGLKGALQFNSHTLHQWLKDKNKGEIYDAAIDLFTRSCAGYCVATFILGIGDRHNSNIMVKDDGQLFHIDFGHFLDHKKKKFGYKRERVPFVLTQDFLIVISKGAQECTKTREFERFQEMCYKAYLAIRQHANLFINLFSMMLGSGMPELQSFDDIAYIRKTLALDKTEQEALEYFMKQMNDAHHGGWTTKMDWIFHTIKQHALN
Sequence of PI3Kα (P27986 whole entry partner): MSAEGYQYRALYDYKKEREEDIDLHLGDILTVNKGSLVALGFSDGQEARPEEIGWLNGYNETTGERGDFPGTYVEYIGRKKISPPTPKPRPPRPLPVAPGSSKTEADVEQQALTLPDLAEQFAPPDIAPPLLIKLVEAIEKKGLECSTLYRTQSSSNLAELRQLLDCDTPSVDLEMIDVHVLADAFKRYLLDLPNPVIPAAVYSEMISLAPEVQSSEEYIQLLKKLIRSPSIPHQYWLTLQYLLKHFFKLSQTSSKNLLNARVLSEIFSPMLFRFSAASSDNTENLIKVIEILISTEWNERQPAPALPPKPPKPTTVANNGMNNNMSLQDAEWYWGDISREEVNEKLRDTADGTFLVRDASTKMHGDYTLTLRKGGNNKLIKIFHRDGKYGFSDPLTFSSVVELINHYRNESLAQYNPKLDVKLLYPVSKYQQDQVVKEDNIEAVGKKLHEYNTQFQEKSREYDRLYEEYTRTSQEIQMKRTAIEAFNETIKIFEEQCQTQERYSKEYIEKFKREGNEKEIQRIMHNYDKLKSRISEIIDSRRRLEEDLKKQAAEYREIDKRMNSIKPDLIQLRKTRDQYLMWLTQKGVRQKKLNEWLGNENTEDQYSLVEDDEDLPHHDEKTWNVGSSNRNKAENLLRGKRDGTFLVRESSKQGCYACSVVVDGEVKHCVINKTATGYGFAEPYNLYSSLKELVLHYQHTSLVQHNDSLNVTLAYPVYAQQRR

Compound: Cc1cc(-c2n[nH]c3nc(NC(=O)NCc4ccccc4)ncc23)ccn1 [16a, 1-Benzyl-3-(3-(2-methylpyridin-4-yl)-1H-pyrazolo[3,4-d]pyrimidin-6-yl)urea]
inhibition at 1 µM [1]: 98.3%
inhibition at 1 µM [2]: 8.7%

Compound: O=C(Nc1ncc2ncc(-c3cn[nH]c3)cc2n1)NC1CCCC1 [32d, 1-(7-(1H-pyrazol-4-yl)pyrido[3,2-d]pyrimidin-2-yl)-3-cyclopentylurea]
IC50 [1]: 73 nM
inhibition at 0.1 µM ([1]; 100 nM compound): 49.3%
IC50 [3]: 1490 nM
AUC(0-inf) [4, 9]: 379 ng·h/mL
AUC(0-t) [4, 9]: 368 ng·h/mL
Cmax [4, 9]: 1310 ng/mL
clearance [4, 9]: 44.8 mL/min/kg
half-life [4, 9]: 2.32 h
MRT last [4, 9]: 0.99 h
Vd ([4]; male, Sprague-Dawley, rat, plasma, iv, i.v. 1 mg/kg, read-out: Vz): 9.12 L/kg
bioavailability ([4]; male, Sprague-Dawley, rat, plasma, oral, p.o. 10 mg/kg vs i.v. 1 mg/kg, read-out: oral bioavailability (F)): 9.37%
AUC(0-inf) [4, 10]: 355 ng·h/mL
AUC(0-t) [4, 10]: 192 ng·h/mL
Cmax [4, 10]: 129 ng/mL
half-life [4, 10]: 2.65 h
MRT last [4, 10]: 2.93 h
CL ([4]; p.o. 10 mg/kg): 727.9 mL/min/kg
Vz ([4]; p.o. 10 mg/kg): 244.74 L/kg
K ([5]; 90 ng/mL): 0.004 min⁻¹
half-life at 90 ng/mL [5]: 2.89 h
microsomal CLint at 90 ng/mL [5]: 16 µL/min/mg
IC50 [6]: 726 nM
IC50 [2]: 59 nM
inhibition at 0.1 µM ([2]; 100 nM compound): 51.4%
body weight of nude mice during treatment [7]: no observed body weight loss
TGI (tumor growth inhibitory rate) [7]: 51%

Compound: Cn1cc(-c2n[nH]c3nc(NC(=O)NCc4ccccc4)ncc23)cn1 [16c, 1-Benzyl-3-(3-(1-methyl-1H-pyrazol-4-yl)-1H-pyrazolo[3,4-d]pyrimidin-6-yl)urea]
inhibition at 1 µM [1]: 97.2%
inhibition at 1 µM [2]: 1.8%

Compound: Cn1cc(-c2n[nH]c3nc(NC(=O)NC4CCCC4)ncc23)cn1 [16d, 1-Cyclopentyl-3-(3-(1-methyl-1H-pyrazol-4-yl)-1H-pyrazolo[3,4-d]pyrimidin-6-yl)urea]
inhibition at 1 µM [1]: 79.5%
inhibition at 1 µM [2]: 4%

Compound: O=C(Nc1ncc2ncc(C3=CCNCC3)cc2n1)NC1CCCC1 [32f, 1-Cyclopentyl-3-(7-(1,2,3,6-tetrahydropyridin-4-yl)pyrido[3,2-d]pyrimidin-2-yl)urea hydrochloride]
inhibition at 0.1 µM ([1]; 100 nM compound): 0.4%
inhibition at 0.1 µM ([2]; 100 nM compound): -8.8%

Compound: O=C(Nc1ncc2ncc(-c3cccc(OC(F)(F)F)c3)cc2n1)NC1CCCC1 [32c, 1-Cyclopentyl-3-(7-(3-(trifluoromethoxy)phenyl)pyrido[3,2-d]pyrimidin-2-yl)urea]
inhibition at 0.1 µM ([1]; 100 nM compound): 1.6%
inhibition at 0.1 µM ([2]; 100 nM compound): -11.3%

Compound: Cc1cc(-c2cnc3cnc(NC(=O)NC4CCCC4)nc3c2)ccn1 [32b, 1-Cyclopentyl-3-(7-(2-methylpyridin-4-yl)pyrido[3,2-d]pyrimidin-2-yl)urea]
inhibition at 0.1 µM ([1]; 100 nM compound): 53.7%
inhibition at 0.1 µM ([2]; 100 nM compound): 10.5%

Compound: 1-Cyclopentyl-3-(7-(2-methylpyridin-4-yl)pyrido[3,2-d]pyrimidin-2-yl)urea [32k]
ERK2 Inhibition% (100 nM) ([1]; 100 nM compound): 66.5%
PI3Kα Inhibition% (100 nM) ([2]; 100 nM compound): 15.3%

Compound: Cc1c(CN2CCN(C(=O)[C@H](C)O)CC2)sc2c(N3CCOCC3)nc(-c3cnc(N)nc3)nc12 [GDC-0980, reference compound]
IC50 [3]: 230 nM
IC50 [6]: 1060 nM
body weight of nude mice during treatment [7]: losing
TGI (tumor growth inhibitory rate) [7]: 46%

Compound: Cc1cc(-c2n[nH]c3nc(NC(=O)NC4CCCC4)ncc23)ccn1 [16b, 1-Cyclopentyl-3-(3-(2-methylpyridin-4-yl)-1H-pyrazolo[3,4-d]pyrimidin-6-yl)urea]
inhibition at 1 µM [1]: 84.8%
inhibition at 1 µM [2]: 27.4%

Continued, in another order:

inhibition at 1 µM [1]: 1.8%
inhibition at 1 µM [2]: 15.1%
Compound: Cn1cc(-c2cnc3nc(NC(=O)NC4CCCC4)ncc3c2)cn1 [compound 24, 1-Cyclopentyl-3-(6-(1-methyl-1H-pyrazol-4-yl)pyrido[2,3-d]pyrimidin-2-yl)urea]

inhibition at 0.1 µM ([1]; 100 nM compound): 35.4%
inhibition at 0.1 µM ([2]; 100 nM compound): 7%
Compound: O=C(Nc1ncc2ncc(-c3ccnc(F)c3)cc2n1)NC1CCCC1 [32e, 1-Cyclopentyl-3-(7-(2-fluoropyridin-4-yl)pyrido[3,2-d]pyrimidin-2-yl)urea]

IC50 [1]: 83 nM
inhibition at 0.1 µM ([1]; 100 nM compound): 55.2%
IC50 [6]: 10000 nM
IC50 [2]: 824 nM
inhibition at 0.1 µM ([2]; 100 nM compound): 32.4%
Compound: Cn1cc(-c2cnc3cnc(NC(=O)NCc4ccccc4)nc3c2)cn1 [32g, 1-Benzyl-3-(7-(1-methyl-1H-pyrazol-4-yl)pyrido[3,2-d]pyrimidin-2-yl)urea]
IC50 [3]: 2270 nM

inhibition at 0.1 µM ([1]; 100 nM compound): 22.1%
inhibition at 0.1 µM ([2]; 100 nM compound): 33.4%
Compound: CCNC(=O)Nc1ncc2ncc(-c3cnn(C)c3)cc2n1 [32i, 1-Ethyl-3-(7-(1-methyl-1H-pyrazol-4-yl)pyrido[3,2-d]pyrimidin-2-yl)urea]

inhibition at 0.1 µM ([1]; 100 nM compound): 17.2%
inhibition at 0.1 µM ([2]; 100 nM compound): 24.9%
Compound: Cn1cc(-c2cnc3cnc(NC(=O)Nc4ccccc4)nc3c2)cn1 [32h, 1-(7-(1-Methyl-1H-pyrazol-4-yl)pyrido[3,2-d]pyrimidin-2-yl)-3-phenylurea]

inhibition at 0.1 µM ([1]; 100 nM compound): 8.4%
solubility [8]: ameliorated
inhibition at 0.1 µM ([2]; 100 nM compound): 41%
Compound: CN(C)CCn1cc(-c2cnc3cnc(NC(=O)NC4CCCC4)nc3c2)cn1 [32m, 1-Cyclopentyl-3-(7-(1-(2-(dimethylamino)ethyl)-1H-pyrazol-4-yl)pyrido[3,2-d]pyrimidin-2-yl) urea]

inhibition at 0.1 µM ([1]; 100 nM compound): 6.2%
inhibition at 0.1 µM ([2]; 100 nM compound): 15.1%
Compound: Cn1cc(-c2cnc3cnc(NC(=O)NCCN4CCOCC4)nc3c2)cn1 [32j, 1-(7-(1-Methyl-1H-pyrazol-4-yl)pyrido[3,2-d]pyrimidin-2-yl)-3-(2-morpholinoethyl)urea]

inhibition at 0.1 µM ([1]; 100 nM compound): 97.7%
inhibition at 1 µM [1]: 97.7%
IC50 [6]: 321 nM
Compound: CC(C)Nc1cc(-c2c[nH]c(C(=O)N[C@H](CO)c3cccc(Cl)c3)c2)c(Cl)cn1 [BVD-523, reference compound]
IC50 [3]: 18000 nM
body weight of nude mice during treatment [7]: losing
TGI (tumor growth inhibitory rate) [7]: 50%
